Experimental findings from US10570129B2 (Zoetis Services LLC, priority 2015, dated 2020) are described below.

A value given as a limit tells only on which side of the number the result lay.

One assay concerns Haemonchus contortus L3. Nature of the assay: microbe, parasite or virus in culture. It counts as cell-based. As to conditions: for minimal effective concentration: Haemonchus contortus, 96 h, read-out: HcL3 Minimal Effective Concentration (MEC).
A further assay relates to D. immitis microfilariae. As to the kind of experiment: Dirofilaria immitis, microfilariae (DiMF) in vitro motility assay. Type of assay: cell-based. Particulars: for minimal effective concentration: Dirofilaria immitis, 72 h, read-out: DiMF minimally effective dose (MEC).

As to “(E)-7,8-dichloro-N-((2-fluoropyridin-4-yl)methyl)-2-(3-(5-(trifluoromethyl)pyridin-2-yl)allyl)-1,2,3,4-tetrahydro-5H-pyrido[4,3-b]indole-5-carboxamide [Example 287]”, in the assay on Haemonchus contortus L3, the “HcL3 Minimal Effective Concentration (MEC)” value is 0.2 µM. Moreover, in the assay on D. immitis microfilariae (decrease in microfilariae motility by subjective visual assessment, observed at 72 hours), the “DiMF minimally effective dose (MEC)” value amounted to 3.3 µM.
`N#Cc1ccc2c(c1)c1c(n2C(=O)NCc2ccnc(Cl)c2)CCN(C/C=C/c2cc(Br)ccc2F)C1` [Example 78, (E)-2-(3-(5-bromo-2-fluorophenyl)allyl)-N-((2-chloropyridin-4-yl)methyl)-8-cyano-1,2,3,4-tetrahydro-5H-pyrido[4,3-b]indole-5-carboxamide]: the minimal effective concentration with Haemonchus contortus L3 is 0.6 µM; with D. immitis microfilariae it was more than 100 µM.
For `O=C(NCc1ccnc(Cl)c1)n1c2c(c3cccc(Cl)c31)CN(C/C=C/c1ccc(Cl)c(Cl)c1)CC2` [Example 268, (E)-6-chloro-N-((2-chloropyridin-4-yl)methyl)-2-(3-(3,4-dichlorophenyl)allyl)-1,2,3,4-tetrahydro-5H-pyrido[4,3-b]indole-5-carboxamide], in that order: more than 100 µM and 10 µM.
Regarding `O=C(NCc1ccnc(Cl)c1)n1c2c(c3cc(N4CCSCC4)ccc31)CN(C/C=C/c1ccc(Cl)c(F)c1)CC2` [Example 510], the minimal effective concentration in the assay on Haemonchus contortus L3 and with D. immitis microfilariae was more than 100 µM throughout.
Turning to `N#Cc1ccc(/C=C/CN2CCc3c(c4ccc(Cl)cc4n3C(=O)NCc3ccnc(Cl)c3)C2)cc1` [Example 212, (E)-7-chloro-N-((2-chloropyridin-4-yl)methyl)-2-(3-(4-cyanophenyl)allyl)-1,2,3,4-tetrahydro-5H-pyrido[4,3-b]indole-5-carboxamide], the minimal effective concentration in the assay on Haemonchus contortus L3 was 1 µM; in the assay on D. immitis microfilariae, more than 100 µM.
On the same counts, the results for `CS(=O)(=O)c1ccc(/C=C/CN2CCc3c(c4cc(C#N)ccc4n3C(=O)NCc3ccnc(F)c3)C2)cc1` [Example 100, (E)-8-cyano-N-((2-fluoropyridin-4-yl)methyl)-2-(3-(4-(methylsulfonyl)-phenyl)allyl)-1,2,3,4-tetrahydro-5H-pyrido[4,3-b]indole-5-carboxamide] are more than 100 µM and more than 100 µM.
On the same counts, the results for `N#Cc1cc2c3c(n(C(=O)NCc4ccnc(Cl)c4)c2cc1C(F)(F)F)CCN(C/C=C/c1ccc(Cl)cc1)C3` [Example 171, (E)-2-(3-(4-chlorophenyl)allyl)-N-((2-chloropyridin-4-yl)methyl)-8-cyano-7-(trifluoromethyl)-1,2,3,4-tetrahydro-5H-pyrido[4,3-b]indole-5-carboxamide] are 0.5 µM and 10 µM.
For `O=C(NCc1ccnc(Cl)c1)n1c2c(c3c(C(F)(F)F)cc(F)cc31)CN(C/C=C/c1ccc(F)cc1)CC2` [Example 324, (E)-N-((2-chloropyridin-4-yl)methyl)-7-fluoro-2-(3-(4-fluorophenyl)allyl)-9-(trifluoromethyl)-1,2,3,4-tetrahydro-5H-pyrido[4,3-b]indole-5-carboxamide], in that order: 3.3 µM and 10 µM.
As to `Cc1ccc2c(c1)c1c(n2C(=O)NCc2ccnc(Cl)c2)CCN(C/C=C/c2ccc(C(F)(F)F)cc2)C1` [Example 435, (E)-N-((2-chloropyridin-4-yl)methyl)-8-methyl-2-(3-(4-(trifluoromethyl)-phenyl)allyl)-1,2,3,4-tetrahydro-5H-pyrido[4,3-b]indole-5-carboxamide], the minimal effective concentration in the assay with Haemonchus contortus L3 and with D. immitis microfilariae was 5.7 µM throughout.
`O=C(NCc1ccnc(Cl)c1)n1c2c(c3cc(Cl)c(Cl)cc31)CN(C/C=C/c1ccc(Cl)cc1)CC2` [Example 280, (E)-7,8-dichloro-2-(3-(4-chlorophenyl)allyl)-N-((2-chloropyridin-4-yl)methyl)-1,2,3,4-tetrahydro-5H-pyrido[4,3-b]indole-5-carboxamide]: the figures for the minimal effective concentration in the assay with Haemonchus contortus L3 and in the assay on D. immitis microfilariae were 0.3 µM and more than 100 µM, respectively.
For `O=C(NCc1ccnc(F)c1)n1c2c(c3cc(Br)ccc31)CN(C/C=C/c1ccc(Cl)cc1)CC2` [Example 192, (E)-8-bromo-2-(3-(4-chlorophenyl)allyl)-N-((2-fluoropyridin-4-yl)methyl)-1,2,3,4-tetrahydro-5H-pyrido[4,3-b]indole-5-carboxamide], in that order: 0.7 µM and 11.5 µM.
On the same counts, the results for `N#Cc1ccc2c(c1)c1c(n2C(=O)NCc2ccnc(F)c2)CCN(C/C=C/c2ccc(Cl)cc2)C1` [Example 121, (E)-2-(3-(4-chlorophenyl)allyl)-8-cyano-N-((2-fluoropyridin-4-yl)methyl)-1,2,3,4-tetrahydro-5H-pyrido[4,3-b]indole-5-carboxamide] are 0.3 µM and 10 µM.
For the molecule `O=C(NCc1ccnc(Cl)c1)n1c2c(c3ccc(OC(F)(F)F)cc31)CN(C/C=C/c1ccc(Cl)cc1Cl)CC2` [Example 337, (E)-N-((2-chloropyridin-4-yl)methyl)-2-(3-(2,4-dichlorophenyl)allyl)-7-(trifluoromethoxy)-1,2,3,4-tetrahydro-5H-pyrido[4,3-b]indole-5-carboxamide], the values for the minimal effective concentration in the assay with Haemonchus contortus L3 and in the assay on D. immitis microfilariae were 1 µM and 18.2 µM, respectively.
With `N#Cc1cc(/C=C/CN2CCc3c(c4cc(Cl)ccc4n3C(=O)NCc3ccnc(Cl)c3)C2)ccc1F` [Example 234, (E)-8-chloro-N-((2-chloropyridin-4-yl)methyl)-2-(3-(3-cyano-4-fluorophenyl)allyl)-1,2,3,4-tetrahydro-5H-pyrido[4,3-b]indole-5-carboxamide], the minimal effective concentration with Haemonchus contortus L3 is 0.1 µM; in the assay with D. immitis microfilariae, 3.3 µM.
Consider `Cc1cc2c3c(n(C(=O)NCc4ccnc(Cl)c4)c2cc1C#N)CCN(C/C=C/c1ccc(Cl)cc1)C3` [Example 176, (E)-2-(3-(4-chlorophenyl)allyl)-N-((2-chloropyridin-4-yl)methyl)-7-cyano-8-methyl-1,2,3,4-tetrahydro-5H-pyrido[4,3-b]indole-5-carboxamide], for which the values for the minimal effective concentration in the assay on Haemonchus contortus L3 and with D. immitis microfilariae were 0.2 µM and 3.3 µM, respectively.
For `O=C(NCc1ccnc(F)c1)n1c2c(c3cc(Cl)ccc31)CN(C/C=C/c1ccc(F)c(Cl)c1)CC2` [Example 258, (E)-8-chloro-2-(3-(3-chloro-4-fluorophenyl)allyl)-N-((2-fluoropyridin-4-yl)methyl)-1,2,3,4-tetrahydro-5H-pyrido[4,3-b]indole-5-carboxamide], in that order: 10 µM and 100 µM.
On the same counts, the results for `O=C(NCc1ccnc(F)c1)n1c2c(c3cc(F)c(Cl)cc31)CN(C/C=C/c1cc(F)c(F)c(F)c1)CC2` [Example 315, (E)-7-chloro-8-fluoro-N-((2-fluoropyridin-4-yl)methyl)-2-(3-(3,4,5-trifluorophenyl)allyl)-1,2,3,4-tetrahydro-5H-pyrido[4,3-b]indole-5-carboxamide] are 1 µM and 5.7 µM.
On the same counts, the results for `N#Cc1ccc(/C=C/CN2CCc3c(c4cc(C(F)(F)F)ccc4n3C(=O)NCc3ccnc(O)c3)C2)cc1` [Example 454, (E)-2-(3-(4-cyanophenyl)allyl)-N-((2-hydroxypyridin-4-yl)methyl)-8-(trifluoromethyl)-1,2,3,4-tetrahydro-5H-pyrido[4,3-b]indole-5-carboxamide] are more than 100 µM and more than 100 µM.
In the case of `O=C(NCc1cnc(Cl)s1)n1c2c(c3cc(Cl)c(Cl)cc31)CN(C/C=C/c1ccc(Cl)cc1)CC2` [Example 294, (E)-7,8-dichloro-2-(3-(4-chlorophenyl)allyl)-N-((2-chlorothiazol-5-yl)methyl)-1,2,3,4-tetrahydro-5H-pyrido[4,3-b]indole-5-carboxamide], the values for the minimal effective concentration in the assay on Haemonchus contortus L3 and in the assay with D. immitis microfilariae were more than 100 µM and 10 µM, respectively.
For `N#Cc1ccc2c3c(n(C(=O)NCc4ccnc(F)c4)c2c1)CCN(C/C=C/c1cc(F)cc(OC(F)(F)F)c1)C3` [Example 54, (E)-7-cyano-2-(3-(3-fluoro-5-(trifluoromethoxy)phenyl)allyl)-N-((2-fluoro-pyridin-4-yl)methyl)-1,2,3,4-tetrahydro-5H-pyrido[4,3-b]indole-5-carboxamide], in that order: more than 100 µM and 10 µM.
On the same counts, the results for `O=C(NCc1ccnc(Cl)c1)n1c2c(c3ccc(OC(F)(F)F)cc31)CN(C/C=C/c1ccc(Cl)cc1F)CC2` [Example 340, (E)-2-(3-(4-chloro-2-fluorophenyl)allyl)-N-((2-chloropyridin-4-yl)methyl)-7-(trifluoromethoxy)-1,2,3,4-tetrahydro-5H-pyrido[4,3-b]indole-5-carboxamide] are 0.3 µM and 5.7 µM.
For `O=C(NCc1ccnc(Cl)c1)n1c2c(c3cc(Cl)ccc31)CN(C/C=C/c1ccc(C(F)(F)F)cc1)CC2` [Example 246, (E)-8-chloro-N-((2-chloropyridin-4-yl)methyl)-2-(3-(4-(trifluoromethyl)-phenyl)allyl)-1,2,3,4-tetrahydro-5H-pyrido[4,3-b]indole-5-carboxamide], in that order: 3.3 µM and 10 µM.
On to `O=C(NCc1ccnc(Cl)c1)n1c2c(c3cc(Br)c(Cl)cc31)CN(C/C=C/c1ccc(Cl)cc1)CC2` [Example 196, (E)-8-bromo-7-chloro-2-(3-(4-chlorophenyl)allyl)-N-((2-chloropyridin-4-yl)methyl)-1,2,3,4-tetrahydro-5H-pyrido[4,3-b]indole-5-carboxamide], for which the minimal effective concentration in the assay with Haemonchus contortus L3 was 0.3 µM; with D. immitis microfilariae, 5.7 µM.
For `O=C(NCc1ccnc(F)c1)n1c2c(c3cc(F)c(Cl)cc31)CN(C/C=C/c1ccc(F)cc1)CC2` [Example 319, (E)-7-chloro-8-fluoro-2-(3-(4-fluorophenyl)allyl)-N-((2-fluoropyridin-4-yl)methyl)-1,2,3,4-tetrahydro-5H-pyrido[4,3-b]indole-5-carboxamide], in that order: 10 µM and 10 µM.
